Measurements reported in PubChem BioAssay (NCI).
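Tested at 5 concentrations; 48 h exposure; 96-well plates; endpoints linearly interpolated, else capped at highest concentration. At the GI50, growth is halved. TGI is the concentration that stops growth completely.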

How the values were obtained:
Assay in all cases: NCI tumour cell line growth inhibition, 48 h
786-0 renal = tested on: 786-0 renal
A498 renal = tested on: A498 renal
A549 NSCLC = tested on: A549 NSCLC
ACHN renal = tested on: ACHN renal
BT-549 breast = tested on: BT-549 breast
CAKI-1 renal = tested on: CAKI-1 renal
CCRF-CEM leukemia = tested on: CCRF-CEM leukemia
COLO 205 colon = tested on: COLO 205 colon
DU-145 prostate = tested on: DU-145 prostate
HCC-2998 colon = tested on: HCC-2998 colon
HCT-15 colon = tested on: HCT-15 colon
HL-60(TB) leukemia = tested on: HL-60(TB) leukemia
HOP-62 NSCLC = tested on: HOP-62 NSCLC
HOP-92 NSCLC = tested on: HOP-92 NSCLC
HS 578T breast = tested on: HS 578T breast
HT29 colon = tested on: HT29 colon
IGROV1 ovarian = tested on: IGROV1 ovarian
K-562 leukemia = tested on: K-562 leukemia
KM12 colon = tested on: KM12 colon
M14 melanoma = tested on: M14 melanoma
MALME-3M melanoma = tested on: MALME-3M melanoma
MCF7 breast = tested on: MCF7 breast
MDA-MB-231 breast = tested on: MDA-MB-231 breast
MDA-MB-435 = tested on: MDA-MB-435
MOLT-4 leukemia = tested on: MOLT-4 leukemia
NCI-H226 lung = tested on: NCI-H226 lung
NCI-H23 lung = tested on: NCI-H23 lung
NCI-H460 lung = tested on: NCI-H460 lung
NCI/ADR-RES ovarian = tested on: NCI/ADR-RES ovarian
OVCAR-4 ovarian = tested on: OVCAR-4 ovarian
OVCAR-5 ovarian = tested on: OVCAR-5 ovarian
OVCAR-8 ovarian = tested on: OVCAR-8 ovarian
PC-3 prostate = tested on: PC-3 prostate
RPMI-8226 leukemia = tested on: RPMI-8226 leukemia
RXF 393 renal = tested on: RXF 393 renal
SF-268 CNS = tested on: SF-268 CNS
SF-295 CNS = tested on: SF-295 CNS
SF-539 CNS = tested on: SF-539 CNS
SK-MEL-2 melanoma = tested on: SK-MEL-2 melanoma
SK-MEL-28 melanoma = tested on: SK-MEL-28 melanoma
SK-MEL-5 melanoma = tested on: SK-MEL-5 melanoma
SK-OV-3 ovarian = tested on: SK-OV-3 ovarian
SN12C renal = tested on: SN12C renal
SNB-19 CNS = tested on: SNB-19 CNS
SNB-75 CNS = tested on: SNB-75 CNS
SR leukemia = tested on: SR leukemia
SW-620 colon = tested on: SW-620 colon
T-47D breast = tested on: T-47D breast
TK-10 renal = tested on: TK-10 renal
UACC-257 melanoma = tested on: UACC-257 melanoma
UACC-62 melanoma = tested on: UACC-62 melanoma
UO-31 renal = tested on: UO-31 renal
EKVX NSCLC = tested on: EKVX NSCLC
HCT-116 colon = tested on: HCT-116 colon
NCI-H522 lung = tested on: NCI-H522 lung

SMILES: Cc1cc2nc(C(Cl)Cl)nc(-c3cccs3)n2n1
- GI50 (786-0 renal): 4.7 µM
- TGI (786-0 renal): > 100 µM
- GI50 (A498 renal): 1.2 µM
- TGI (A498 renal): 2.66 µM
- GI50 (A549 NSCLC): 0.374 µM
- TGI (A549 NSCLC): 3.51 µM
- GI50 (ACHN renal): 0.366 µM
- TGI (ACHN renal): 2.44 µM
- GI50 (BT-549 breast): 7.67 µM
- TGI (BT-549 breast): > 100 µM
- GI50 (CAKI-1 renal): 1.66 µM
- TGI (CAKI-1 renal): 5.97 µM
- GI50 (CCRF-CEM leukemia): 4.22 µM
- TGI (CCRF-CEM leukemia): > 100 µM
- GI50 (COLO 205 colon): 0.942 µM
- TGI (COLO 205 colon): 3.29 µM
- GI50 (DU-145 prostate): 0.289 µM
- TGI (DU-145 prostate): 0.858 µM
- GI50 (HCC-2998 colon): 0.514 µM
- TGI (HCC-2998 colon): 1.91 µM
- GI50 (HCT-15 colon): 1.2 µM
- TGI (HCT-15 colon): 4.03 µM
- GI50 (HL-60(TB) leukemia): 0.346 µM
- TGI (HL-60(TB) leukemia): 2.39 µM
- GI50 (HOP-62 NSCLC): 0.938 µM
- TGI (HOP-62 NSCLC): 4.43 µM
- GI50 (HOP-92 NSCLC): 1.41 µM
- TGI (HOP-92 NSCLC): 3.92 µM
- GI50 (HS 578T breast): 1.93 µM
- TGI (HS 578T breast): 6.21 µM
- GI50 (HT29 colon): 0.496 µM
- TGI (HT29 colon): 2.19 µM
- GI50 (IGROV1 ovarian): 2.43 µM
- TGI (IGROV1 ovarian): > 100 µM
- GI50 (K-562 leukemia): 2.54 µM
- TGI (K-562 leukemia): > 100 µM
- GI50 (KM12 colon): 2.02 µM
- TGI (KM12 colon): 4.51 µM
- GI50 (M14 melanoma): 2.1 µM
- TGI (M14 melanoma): 4.99 µM
- GI50 (MALME-3M melanoma): 2.21 µM
- TGI (MALME-3M melanoma): 5.31 µM
- GI50 (MCF7 breast): 0.705 µM
- TGI (MCF7 breast): > 100 µM
- GI50 (MDA-MB-231 breast): 1.55 µM
- TGI (MDA-MB-231 breast): 4.43 µM
- GI50 (MDA-MB-435): 1.86 µM
- TGI (MDA-MB-435): 3.81 µM
- GI50 (MOLT-4 leukemia): 1.48 µM
- TGI (MOLT-4 leukemia): > 100 µM
- GI50 (NCI-H226 lung): > 100 µM
- TGI (NCI-H226 lung): > 100 µM
- GI50 (NCI-H23 lung): 0.953 µM
- TGI (NCI-H23 lung): 2.96 µM
- GI50 (NCI-H460 lung): 0.333 µM
- TGI (NCI-H460 lung): 1.57 µM
- GI50 (NCI/ADR-RES ovarian): 1.26 µM
- TGI (NCI/ADR-RES ovarian): 4.72 µM
- GI50 (OVCAR-4 ovarian): 2.12 µM
- TGI (OVCAR-4 ovarian): 4.74 µM
- GI50 (OVCAR-5 ovarian): 1.93 µM
- TGI (OVCAR-5 ovarian): 5.73 µM
- GI50 (OVCAR-8 ovarian): 1.27 µM
- TGI (OVCAR-8 ovarian): > 100 µM
- GI50 (PC-3 prostate): 1.41 µM
- TGI (PC-3 prostate): 4.32 µM
- GI50 (RPMI-8226 leukemia): 1.4 µM
- TGI (RPMI-8226 leukemia): 5.47 µM
- GI50 (RXF 393 renal): 0.838 µM
- TGI (RXF 393 renal): 2.23 µM
- GI50 (SF-268 CNS): 1.98 µM
- TGI (SF-268 CNS): 7.27 µM
- GI50 (SF-295 CNS): 1.27 µM
- TGI (SF-295 CNS): 5.8 µM
- GI50 (SF-539 CNS): 2.27 µM
- TGI (SF-539 CNS): 7.49 µM
- GI50 (SK-MEL-2 melanoma): 3.05 µM
- TGI (SK-MEL-2 melanoma): > 100 µM
- GI50 (SK-MEL-28 melanoma): 1.83 µM
- TGI (SK-MEL-28 melanoma): 3.63 µM
- GI50 (SK-MEL-5 melanoma): 9.61 µM
- TGI (SK-MEL-5 melanoma): > 100 µM
- GI50 (SK-OV-3 ovarian): 2.15 µM
- TGI (SK-OV-3 ovarian): 6.51 µM
- GI50 (SN12C renal): > 100 µM
- TGI (SN12C renal): > 100 µM
- GI50 (SNB-19 CNS): 1.18 µM
- TGI (SNB-19 CNS): 5.99 µM
- GI50 (SNB-75 CNS): 0.702 µM
- TGI (SNB-75 CNS): 2.94 µM
- GI50 (SR leukemia): 1.43 µM
- TGI (SR leukemia): > 100 µM
- GI50 (SW-620 colon): 1.38 µM
- TGI (SW-620 colon): 8.1 µM
- GI50 (T-47D breast): 1.4 µM
- TGI (T-47D breast): 7.66 µM
- GI50 (TK-10 renal): 2.11 µM
- TGI (TK-10 renal): 5.92 µM
- GI50 (UACC-257 melanoma): 1.87 µM
- TGI (UACC-257 melanoma): 4.55 µM
- GI50 (UACC-62 melanoma): 3 µM
- TGI (UACC-62 melanoma): > 100 µM
- GI50 (UO-31 renal): 1.67 µM
- TGI (UO-31 renal): 5.14 µM

SMILES: Cc1ccc(NC(=O)c2ccc(CN3CCN(C)CC3)c(C(F)(F)F)c2)cc1Oc1ccc(-c2[nH]nc3ncnc(N)c23)cc1
- GI50 (A498 renal): 18.4 µM
- TGI (A498 renal): 42.9 µM
- GI50 (A549 NSCLC): 2.18 µM
- TGI (A549 NSCLC): 5.36 µM
- GI50 (ACHN renal): 1.73 µM
- TGI (ACHN renal): 3.18 µM
- GI50 (CAKI-1 renal): 9.05 µM
- TGI (CAKI-1 renal): 29.7 µM
- GI50 (COLO 205 colon): 7.29 µM
- TGI (COLO 205 colon): 25.2 µM
- GI50 (DU-145 prostate): 1.83 µM
- TGI (DU-145 prostate): 3.47 µM
- GI50 (EKVX NSCLC): 2.01 µM
- TGI (EKVX NSCLC): 4.19 µM
- GI50 (HCT-116 colon): 1.89 µM
- TGI (HCT-116 colon): 4.35 µM
- GI50 (HCT-15 colon): 1.57 µM
- TGI (HCT-15 colon): 3.29 µM
- GI50 (HL-60(TB) leukemia): 6.42 µM
- TGI (HL-60(TB) leukemia): 78.5 µM
- GI50 (HOP-62 NSCLC): 2.26 µM
- TGI (HOP-62 NSCLC): 5.14 µM
- GI50 (HS 578T breast): 4.97 µM
- TGI (HS 578T breast): 42.8 µM
- GI50 (K-562 leukemia): 0.713 µM
- TGI (K-562 leukemia): > 100 µM
- GI50 (KM12 colon): 1.6 µM
- TGI (KM12 colon): 3.67 µM
- GI50 (M14 melanoma): 1.72 µM
- TGI (M14 melanoma): 4.28 µM
- GI50 (MDA-MB-435): 1.61 µM
- TGI (MDA-MB-435): 3.34 µM
- GI50 (MOLT-4 leukemia): 2.03 µM
- TGI (MOLT-4 leukemia): 7.31 µM
- GI50 (NCI-H226 lung): 18 µM
- TGI (NCI-H226 lung): 72.9 µM
- GI50 (NCI-H460 lung): 1.84 µM
- TGI (NCI-H460 lung): 3.59 µM
- GI50 (NCI-H522 lung): 3.04 µM
- TGI (NCI-H522 lung): 9.35 µM
- GI50 (NCI/ADR-RES ovarian): 3.08 µM
- TGI (NCI/ADR-RES ovarian): 12.9 µM
- GI50 (OVCAR-4 ovarian): 18.7 µM
- TGI (OVCAR-4 ovarian): 42 µM
- GI50 (OVCAR-5 ovarian): 1.97 µM
- TGI (OVCAR-5 ovarian): 3.66 µM
- GI50 (SF-268 CNS): 3.77 µM
- TGI (SF-268 CNS): 30.2 µM
- GI50 (SF-295 CNS): 8.51 µM
- TGI (SF-295 CNS): 44.1 µM
- GI50 (SF-539 CNS): 1.16 µM
- TGI (SF-539 CNS): 2.5 µM
- GI50 (SK-MEL-2 melanoma): 23.2 µM
- TGI (SK-MEL-2 melanoma): 81.7 µM
- GI50 (SK-MEL-28 melanoma): 1.74 µM
- TGI (SK-MEL-28 melanoma): 3.39 µM
- GI50 (SK-MEL-5 melanoma): 1.67 µM
- TGI (SK-MEL-5 melanoma): 3.09 µM
- GI50 (SK-OV-3 ovarian): 23.5 µM
- TGI (SK-OV-3 ovarian): 56.5 µM
- GI50 (SN12C renal): 3.68 µM
- TGI (SN12C renal): 18.7 µM
- GI50 (SNB-75 CNS): 0.419 µM
- TGI (SNB-75 CNS): 24 µM
- GI50 (SW-620 colon): 1.97 µM
- TGI (SW-620 colon): 3.69 µM
- GI50 (T-47D breast): 2.61 µM
- TGI (T-47D breast): 7.17 µM
- GI50 (TK-10 renal): 32.4 µM
- TGI (TK-10 renal): 63.3 µM
- GI50 (UACC-257 melanoma): 2.51 µM
- TGI (UACC-257 melanoma): 5.8 µM
- GI50 (UACC-62 melanoma): 2.02 µM
- TGI (UACC-62 melanoma): 4.81 µM
